# Measurements taken from US7863315B2, “2-indolinone derivatives as selective histone deacetylase inhibitors” (Shenzhen Chipscreen Biosciences, Ltd., priority 2008, dated 2011).
# Legend:
# Assay type in all cases: cell-based
# [1] = test system: HDAC class I (p21 reporter gene); test: HDAC subtype reporter gene assay, p21-promoter luciferase in HeLa cells; settings: Homo sapiens, M-HeLa, read-out: % of SAHA Response for HDAC class I at 10 μM (p21 reporter gene), 24 hours
# Procedure: (§1) Measurement of inhibition of HDAC subtypes activity in cells by reporter gene assay: HDAC subtype selectivity inhibition assay of tested compounds was carried out by several reporter gene assays experiments. Briefly, HeLa cells were seeded in 96-well plates the day before transfection to give a confluence of 50-80%. Cells were transfected with one of reporter gene plasmids containing a promoter sequences or response elements upstream of a luciferase gene construct using FuGene6 transfection reagent according to the manufacturer's instructions (Roche). The promoters or response elements including p21-promoter, gdf11-promoter, MEF-binding element (MEF2), Nur77-promoter were fused upstream to the luciferase gene reporter construct. For normalizing the transfection efficiency, a GFP expression plasmid was cotransfected. Cells were allowed to express protein for 24 hours followed by addition of individual compounds or the vehicle (DMSO). 24 hours later, the cells were harvested and the luciferase assays were performed using the luciferase assay kit according to the manufacturer's instructions (Promega). To normalize the data from the luciferase assays, GFP activity from transfected cells was measured in a microtiter-plate reading fluorimeter capable of excitation at a wavelength at 485 nm and detection of emitted light at 527 nm.
# [2] = test system: HDAC4/5 (MEF2 reporter gene); test: HDAC subtype reporter gene assay, MEF-binding element (MEF2) luciferase in HeLa cells; settings: Homo sapiens, M-HeLa, read-out: % of SAHA Response for HDAC4/5 at 10 μM (MEF2 reporter gene), 24 hours
# Procedure: as §1
# [3] = molecular target: T1, HDAC6 (α-tubulin acetylation) (Homo sapiens, UniProt Q9UBN7); test: ELISA assay of acetylation of α-tubulin in HeLa cells; settings: M-HeLa, 24 hours
# T1 construct: endogenous in cells; host or cells: HeLa
# T1 sequence (Q9UBN7 1-1215): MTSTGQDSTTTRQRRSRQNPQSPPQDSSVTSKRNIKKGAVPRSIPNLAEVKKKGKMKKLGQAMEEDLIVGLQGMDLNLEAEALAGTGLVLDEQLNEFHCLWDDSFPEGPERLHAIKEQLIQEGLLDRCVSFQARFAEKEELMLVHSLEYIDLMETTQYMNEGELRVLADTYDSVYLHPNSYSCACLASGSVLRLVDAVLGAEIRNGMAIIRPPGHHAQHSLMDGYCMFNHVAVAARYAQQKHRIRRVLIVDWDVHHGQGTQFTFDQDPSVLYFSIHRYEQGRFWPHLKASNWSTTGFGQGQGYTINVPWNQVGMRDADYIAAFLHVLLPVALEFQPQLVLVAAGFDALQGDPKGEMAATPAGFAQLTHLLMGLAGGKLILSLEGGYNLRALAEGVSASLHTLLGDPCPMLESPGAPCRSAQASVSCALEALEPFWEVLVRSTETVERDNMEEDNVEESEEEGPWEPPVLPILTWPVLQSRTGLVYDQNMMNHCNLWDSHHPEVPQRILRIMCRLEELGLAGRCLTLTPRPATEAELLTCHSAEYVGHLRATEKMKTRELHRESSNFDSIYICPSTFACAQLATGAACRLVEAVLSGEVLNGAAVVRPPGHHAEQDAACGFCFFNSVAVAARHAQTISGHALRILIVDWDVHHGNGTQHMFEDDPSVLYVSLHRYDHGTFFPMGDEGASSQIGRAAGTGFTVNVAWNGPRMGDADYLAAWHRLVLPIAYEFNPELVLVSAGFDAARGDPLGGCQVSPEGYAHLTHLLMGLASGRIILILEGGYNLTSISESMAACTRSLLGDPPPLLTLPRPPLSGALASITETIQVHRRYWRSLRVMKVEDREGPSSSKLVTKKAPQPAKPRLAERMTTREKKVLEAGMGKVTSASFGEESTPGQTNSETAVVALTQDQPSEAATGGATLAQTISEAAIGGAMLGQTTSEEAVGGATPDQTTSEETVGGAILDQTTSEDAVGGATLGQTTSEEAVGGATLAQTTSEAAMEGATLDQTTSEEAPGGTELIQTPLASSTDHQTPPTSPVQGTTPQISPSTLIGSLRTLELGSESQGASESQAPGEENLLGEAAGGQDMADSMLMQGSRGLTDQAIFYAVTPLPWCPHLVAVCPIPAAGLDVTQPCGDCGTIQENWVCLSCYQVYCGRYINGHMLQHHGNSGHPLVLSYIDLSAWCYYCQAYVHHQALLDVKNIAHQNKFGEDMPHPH
# Procedure: Measurement of acetylation activity in cells on substrates:
# ELISA assay of acetylation of α-tubulin
# This assay is used to measure in vivo inhibition of HDAC6 in a cytoblot assay. Materials and Reagent: • 1. 24-well tissue culture • 2. DMEM Medium containing 10% FBS • 3. 96-well white plate • 4. HeLa cell line • 5. M-PER Mammalian Protein Extraction Reagent (Pierce) • 6. Bradford assay reagent • 7. Anti-acetyl-tubulin (Upstate) • 8. HRP-labeled anti-mouse IgG (Upstate) • 9. Coating Buffer: 15 mM Na2CO3, 35 mM NaHCO3 (pH 9.6) • 10. 10×PBS: 0.58 M Na2HPO4, 0.17M NaH2PO4, 0.68M NaCl (pH 7.4) • 11. Wash Buffer:1×PBS containing 0.05% Tween-20 (PBST) • 12. Blocking Buffer:10 mg/ml bocine serum albumin (BSA) in PBS • 13. Antibody Dilution Buffer: 5 mg/ml BSA in PBST • 14. Enhanced chemiluminescence (ECL) (Amersham)
# Procedure for performing the assay in 96-well plate: • 1. HeLa cells were seeded at a density of 60000 cells/500 μl/well in 24-well plate and incubated at 37° C. for 24 hours. • 2. Compounds were added and incubated for 24 hours at 37° C. • 3. Culture medium was removed, then washes the cells twice with ice-cold PBS. • 4. Add 100 μl/well of Protein Extraction Reagent and gently shake the mixture for 5 minutes. • 5. Collect the lysate to a 96-well plate respectively. Determine the concentration of protein by Bradford assay. • 6. Coat the wells of a 96-well white plate with 100 μl/well of 2.5 μg whole cell protein in Coating Buffer by incubating overnight at 4° C. • 7. Discard the uncoated proteins and wash the coated wells three times with 200 μl/well of PBST. • 8. Block coated wells by incubating the plate with 200 μl/well of Blocking Buffer for 1 hour at 37° C. • 9. Wells were aspirated and washed three times with 200 μl/well of PBST. • 10. After aspirating, 50 μl/well of Antibody Dilution Buffer containing anti-Ac-tubulin (1:1000) were added to each well and incubated for 2 hour at 37° C. • 11. Wells were aspirated and washed three times with 200 μl/well of PBST. • 12. 50 μl/well of Antibody Dilution Buffer containing HRP-labeled anti-mouse IgG (1:2000) were added to each well and incubated for 2 hour at 37° C. • 13. Wells were aspirated and washed three times with 200 μl/well of PBST. • 14. Wells were washed three times with 200 μl/well of purified water. • 15. Add 50 μl/well of ECL mixture, then read the plates on the plate reader.
fold induction at 10 µM [3],SMILES,Emax at 10 µM [1] [%],Emax at 10 µM [2] [%]
1.39,"Nc1ccccc1NC(=O)CCCCCCCNC(=O)c1ccc(/C=N/N=C2\C(=O)Nc3ccc(F)cc32)cc1 [Example 35, 8-(4-(((5-fluoro-2-oxoindolin-3-ylidene)hydrazono)methyl)benzamido)-N-(2-aminophenyl)octanamide]",56,46
1.88,"O=C(CCCCCNC(=O)c1ccc(/C=N/N=C2\C(=O)Nc3ccc(F)cc32)cc1)NO [Example 31, 6-(4-(((5-fluoro-2-oxoindolin-3-ylidene)hydrazono)methyl)benzamido)-N-hydroxyhexanamide]",39,30
1.64,"Nc1cc(F)ccc1NC(=O)CCCCCNC(=O)c1cccc(/C=C2\C(=O)Nc3ccc(F)cc32)c1 [Example 45, 6-(3-((5-fluoro-2-oxoindolin-3-ylidene)methyl)benzamido)-N-(2-amino-4-fluorophenyl)hexanamide]",19,44
1.64,"Cc1[nH]c(/C=N/N=C2\C(=O)Nc3ccc(F)cc32)c(C)c1C(=O)NCCCCCCCC(=O)Nc1ccc(F)cc1N [Example 27, 8-(5-(((5-fluoro-2-oxoindolin-3-ylidene)hydrazono)methyl)-2,4-dimethyl-1H-pyrrole-3-carboxamido)-N-(2-amino-4-fluorophenyl)octanamide]",8,37
1.85,"Cc1[nH]c(/C=N/N=C2\C(=O)Nc3ccc(F)cc32)c(C)c1C(=O)NCCCCCCCC(=O)NO [Example 26, 8-(5-(((5-fluoro-2-oxoindolin-3-ylidene)hydrazono)methyl)-2,4-dimethyl-1H-pyrrole-3-carboxamido)-N-hydroxyoctanamide]",53,20
2.91,"Nc1ccccc1NC(=O)CCCCCCCNC(=O)c1cccc(/C=C2\C(=O)Nc3ccc(F)cc32)c1 [Example 54, 8-(3-((5-fluoro-2-oxoindolin-3-ylidene)methyl)benzamido)-N-(2-aminophenyl)octanamide]",72,53
2.66,"Nc1ccccc1NC(=O)CCCCCNC(=O)c1cccc(/C=C2\C(=O)Nc3ccc(F)cc32)c1 [Example 44, 6-(3-((5-fluoro-2-oxoindolin-3-ylidene)methyl)benzamido)-N-(2-aminophenyl)hexanamide]",97,85
2.07,"O=C(CCCCCNC(=O)c1cccc(/C=C2\C(=O)Nc3ccc(F)cc32)c1)NO [Example 46, 6-(3-((5-fluoro-2-oxoindolin-3-ylidene)methyl)benzamido)-N-hydroxyhexanamide]",15,27
1.97,"O=C(CCCCNC(=O)c1cccc(/C=C2\C(=O)Nc3ccc(F)cc32)c1)NO [Example 51, 5-(3-((5-fluoro-2-oxoindolin-3-ylidene)methyl)benzamido)-N-hydroxypentanamide]",18,33
2.17,"Cc1[nH]c(/C=N/N=C2\C(=O)Nc3ccc(F)cc32)c(C)c1C(=O)NCCCCCC(=O)NO [Example 11, 6-(5-(((5-fluoro-2-oxoindolin-3-ylidene)hydrazono)methyl)-2,4-dimethyl-1H-pyrrole-3-carboxamido)-N-hydroxyhexanamide]",52,27
1.97,"Nc1cc(F)ccc1NC(=O)CCCCNC(=O)c1cccc(/C=C2\C(=O)Nc3ccc(F)cc32)c1 [Example 50, 5-(3-((5-fluoro-2-oxoindolin-3-ylidene)methyl)benzamido)-N-(2-amino-4-fluorophenyl)pentanamide]",7,43
2.73,"Cc1[nH]c(/C=N/N=C2\C(=O)Nc3ccc(F)cc32)c(C)c1C(=O)NCCCCCC(=O)Nc1ccccc1N [Example 13, 6-(5-(((5-fluoro-2-oxoindolin-3-ylidene)hydrazono)methyl)-2,4-dimethyl-1H-pyrrole-3-carboxamido)-N-(2-aminophenyl)hexanamide]",18,18
2.04,"Cc1[nH]c(/C=N/N=C2\C(=O)Nc3ccc(F)cc32)c(C)c1C(=O)NCCCCCC(=O)Nc1ccc(F)cc1N [Example 12, 6-(5-(((5-fluoro-2-oxoindolin-3-ylidene)hydrazono)methyl)-2,4-dimethyl-1H-pyrrole-3-carboxamido)-N-(2-amino-4-fluorophenyl)hexanamide]",9,35
2.39,"Nc1ccccc1NC(=O)CCCCNC(=O)c1cccc(/C=C2\C(=O)Nc3ccc(F)cc32)c1 [Example 49, 5-(3-((5-fluoro-2-oxoindolin-3-ylidene)methyl)benzamido)-N-(2-aminophenyl)pentanamide]",18,32
2.59,"Nc1ccccc1NC(=O)CCCCCNC(=O)c1ccc(/C=N/N=C2\C(=O)Nc3ccc(F)cc32)cc1 [Example 32, 6-(4-(((5-fluoro-2-oxoindolin-3-ylidene)hydrazono)methyl)benzamido)-N-(2-aminophenyl)hexanamide]",17,28
